Test results from patent US20240239806A1, “COMPOUNDS, COMPOSITIONS AND METHODS OF TREATING DISORDERS” (Chengdu Anticancer Bioscience, Ltd., priority 2021, published 2024).
Entries after “also recorded” stand apart in the source; their conditions may differ.

Legend:
A549 = test: MECP in cancer cell line; assay type: cell-based; details: Homo sapiens
Procedure, shortened: (§1)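 Imaging read-out (IN-Cell 2000): mitotic index at 24 h, polyploidy/DNA content at 48 h, also 72 h. Cells in DMEM/5% FBS, 37 °C, 5% CO2; compound 1 nM–30 μM. Binned A ≤1.0 μM, B ≤10.0 μM, C ≤30.0 μM, D >30.0 μM.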

Calu-6 = test: MECP in cancer cell line; assay type: cell-based, human
Protocol: (§2) Six lung cancer cell lines (NCI-H23, NCI-H460, NCI-H596, NCI-H2170, Calu-6 and A549), two colon cancer cell lines (HCT116 and SW460), one breast cancer cell line MDA-MB-231, one gastric cancer cell line NCI-N87, one prostate cancer cell line DU145, one cervical cancer cell line Hela, and one glioblastoma cell line T98G were obtained from ATCC. The T2 HCC cell line was derived from a mouse liver cancer model initiated by a transgene of MYC. All cell lines were cultured in DMEM (Gibco, Cleveland, TN, USA) supplemented with 5% fetal bovine serum (Gibco), penicillin (100 U/mL)—streptomycin (100 μg/mL) (Gibco, Cat. No. 15140-122), 2 mM L-glutamine (Gibco, 200 mM solution, Cat. No. 25030081), and 1 mM sodium pyruvate (Gibco, 100 mM solution, Cat. No. 11360070) at 37° C. in a humidified incubator that was maintained at 5% CO2.
(§3) We have previously developed a mechanism-informed phenotypic screening assay to identify novel antimitotic agents. Equipped with a prior understanding of the versatile functions of the chromosomal passenger protein (CPP) complex in orchestrating karyokinesis and cytokinesis, the screening assay is to score for phenotypes typically seen when the CPP complex is disabled. Specifically, the parameters for a positive hit are a temporary elevation of mitotic index (MI) at 24 hours of drug treatment and an accumulation of polyploid cells at 48 hours of drug treatment, indicative of mitotic arrest and cytokinetic failure respectively. These parameters exclude compounds that elicit only a prolonged arrest of cells in mitosis, a phenotype typically provoked by spindle toxins. The screening procedure is briefly summarized here. RPEMYC^H2B-GFP cells engineered to express a Histone 2B-EGFP fusion protein were passaged as batches of 96-well plates, 18-24 hours before exposure to the chemical compounds of the present disclosure at concentrations from 1 nM to 30 μM. At 24, 48 or 72 hours after initiation of treatment, cells were analyzed for either an arrest in mitosis or a change in DNA content by GE IN-Cell Analyzer 2000. As set forth in Table 2 below, a value of greater than or equal to 1 nM and less than or equal to 1.0 μM is marked “A”; a value greater than 1.00 μM and less than or equal to 10.0 μM is marked “B”; a value greater than 10.0 μM and less than or equal to 30.0 μM is marked “C”; and a value greater than 30.0 μM is marked “D.”

DU145 = test: MECP in cancer cell line; assay type: cell-based, human
Protocol: as §2, §3

NCI-H2170 = test: MECP in cancer cell line; assay type: cell-based, human
Protocol: as §2, §3

[1] = test system: human lung cancer cell line NCI-H23; test: Colony formation assay of long-term effect; assay type: cell-based; details: exposed for three days, drug-free medium until 12 days; compared with AZD1152
Text: Acute cytotoxicity immediately determined after short-term exposure to antimitotic agents often underestimates their potency, because some cancer cells might not die quickly after suffering mitotic defects such as an arrest in mitosis or a cytokinetic failure. Instead, after exposed to antimitotic agents, cells might face multiple possibilities that adversely affect their viability and proliferation in long-term such as permanent arrest of proliferation due to the development of senescence and nonapoptotic cell death by excessive autophagy. Only a small fraction of cells pretreated with an antimitotic agent might resume proliferation and divide to generate viable daughter cells that form colonies. Assay of the ability of cells to form colonies after being exposed to an anticancer agent for a short period of time represents a more accurate approach to document the potency of antimitotic agents. The human lung cancer cell line NCI-H23 in sub-confluence was exposed to compounds #7, #36, and #39 for three days and then transferred to drug-free fresh medium once every 3 days until 12 days after the initiation of treatment. At the end point, cells were photographed after fixed and stained with crystal violet.

[2] = test system: human lung cancer cell line NCI-H23; test: Soft agar colony formation assay; assay type: cell-based
Text: (§4) Measuring the ability of cells to grow in soft agar has been popularly believed as the gold standard assay for cellular transformation in vitro. In the Soft Agar Assay, cells grow from single cells to cell colonies in a semi-solid agar solution that keeps them away from the solid surface and allows growth in an anchorage-independent way.
The anchorage-independent growth of cells is one of the hallmarks of cancer cells. Normal epithelial cells are supported by basement membranes that provide survival and proliferative signals while undergo a type of apoptosis called anoikis when lose their attachment to the extracellular matrix. Cancer cells, in contrast, evade detachment-induced apoptosis, leading to uncontrolled proliferation and metastasis. The Soft Agar Colony Formation Assay allows testing of the therapeutic efficacy of compounds against anchorage-independent 3D growth of cancer cells in vin. The assay was performed in 6-well plates with two layers of agar. For the first, 0.75% agar in DMEM medium was melted in a microwave oven and poured to form a bottom layer. Once solidified, 10-100K cells in 1 ml of DMEM containing 0.35% agar was added to form the top layer, which was later covered with 0.5 ml of DMEM. Cell culture medium was changed once every two days until colonies were ready to photograph. […]

Human Cancer Cells = test: Anchorage-independent growth in 3D culture (FIG. 3); assay type: cell-based; details: FIG. 3 legend, cell line not named
Text: as §4
The anchorage-independent growth of cells is one of the hallmarks of cancer cells. Normal epithelial cells are supported by basement membranes that provide survival and proliferative signals while undergo a type of apoptosis called anoikis when lose their attachment to the extracellular matrix. Cancer cells, in contrast, evade detachment-induced apoptosis, leading to uncontrolled proliferation and metastasis. The Soft Agar Colony Formation Assay allows testing of the therapeutic efficacy of compounds against anchorage-independent 3D growth of cancer cells in vin. The assay was performed in 6-well plates with two layers of agar. For the first, 0.75% agar in DMEM medium was melted in a microwave oven and poured to form a bottom layer. Once solidified, 10-100K cells in 1 ml of DMEM containing 0.35% agar was added to form the top layer, which was later covered with 0.5 ml of DMEM. Cell culture medium was changed once every two days until colonies were ready to photograph. We test the antitumor activity of select compounds in soft agar colony formation assays. […] The suppression of growth of these three cancer cell lines in 3D culture is consistent with the potent impact of these compounds on cellular proliferation in 2D culture.

[3] = test system: colon cancer cell line HCT116; test: Soft agar colony formation assay; assay type: cell-based, human
SW480 = test: MECP in cancer cell line; assay type: cell-based; details: Homo sapiens
Procedure, shortened: as §1

SMILES	minimal effective concentration (A549) [µM]	MECP (Calu-6)	MECP (DU145)	MECP (NCI-H2170)	long-term proliferative potential of NCI-H23 cells (colony formation) [1]	growth in soft agar [2]	Anchorage-independent Growth of Human Cancer Cells in 3D Culture (Human Cancer Cells)	growth in soft agar [3]	minimal effective concentration (SW480) [µM]
COC(=O)c1cc(Oc2ncnc3cc[nH]c23)cc(C(=O)OC)c1 [Compound 36, dimethyl 5-((5H-pyrrolo[3,2-d]pyrimidin-4-yl)oxy)isophthalate]	1 to 10	A (a value of greater than or equal to 1 nM and less than or equal to 1.0 μM)	A (a value of greater than or equal to 1 nM and less than or equal to 1.0 μM)	A (a value of greater than or equal to 1 nM and less than or equal to 1.0 μM)	Suppress the Long-Term Proliferative Potential; also recorded: inhibited the long-term proliferative potential	completely blocked the growth	Suppress the Anchorage-independent Growth	–	–
COc1cc(OC)cc(Oc2ccnc3ccccc23)c1 [Compound 7, 4-(3,5-dimethoxyphenoxy)quinoline]	–	–	–	–	Suppress the Long-Term Proliferative Potential; also recorded: inhibited the long-term proliferative potential	–	Suppress the Anchorage-independent Growth	suppressed the growth	–
COC(=O)c1cc(OC)cc(Oc2ncnc3ccsc23)c1 [Compound 37, methyl 3-methoxy-5-(thieno[3,2-d]pyrimidin-4-yloxy)benzoate]	1 to 10	A (a value of greater than or equal to 1 nM and less than or equal to 1.0 μM)	A (a value of greater than or equal to 1 nM and less than or equal to 1.0 μM)	A (a value of greater than or equal to 1 nM and less than or equal to 1.0 μM)	–	–	–	–	0.001 to 1
COC(=O)c1cc(OC)cc(Oc2ncnc3cc[nH]c23)c1 [Compound 34, methyl 3-((5H-pyrrolo[3,2-d]pyrimidin-4-yl)oxy)-5-methoxybenzoate]	1 to 10	A (a value of greater than or equal to 1 nM and less than or equal to 1.0 μM)	A (a value of greater than or equal to 1 nM and less than or equal to 1.0 μM)	A (a value of greater than or equal to 1 nM and less than or equal to 1.0 μM)	–	–	–	–	0.001 to 1
COC(=O)c1cc(Oc2ncnc3ccsc23)cc(C(=O)OC)c1 [Compound 39, dimethyl 5-(thieno[3,2-d]pyrimidin-4-yloxy)isophthalate]	1 to 10	A (a value of greater than or equal to 1 nM and less than or equal to 1.0 μM)	A (a value of greater than or equal to 1 nM and less than or equal to 1.0 μM)	A (a value of greater than or equal to 1 nM and less than or equal to 1.0 μM)	Suppress the Long-Term Proliferative Potential; also recorded: inhibited the long-term proliferative potential	completely blocked the growth	Suppress the Anchorage-independent Growth	–	–
COC(=O)c1cc(OC)cc(Oc2ncnc3cc(OC)c(OC)cc23)c1 [Compound 29]	1 to 10	A (a value of greater than or equal to 1 nM and less than or equal to 1.0 μM)	B (a value greater than 1.00 M and less than or equal to 10.0 μM)	A (a value of greater than or equal to 1 nM and less than or equal to 1.0 μM)	–	–	–	–	1 to 10
